In US5194611A, “Separation technique for a mixture of (6RS)-diastereoisomers of an ammonium salt of N^5 -methyl-5,6,7,8-tetrahydrofolic acid into single (6R) and (6S)-diastereoisomers” (Sapec S.A. fine chemicals, priority 1990, dated 1993):
Structures can show the parent of a compound that is named as a salt.

System: human CCRF-CEM cells
Assay: cells
Settings: 72 h, read-out: % growth (72 hrs exp.)
Experimental: Inhibition of the growth of human CCRF-CEM cells
Human leukemia cells (CCRF-CEM) were grown during 72 hours in the presence of increasing concentration of (6R)-N^5 -methyl-THF.[…].

Compound `CN1c2c(nc(N)[nH]c2=O)NC[C@H]1CNc1ccc(C(=O)N[C@@H](CCC(=O)O)C(=O)O)cc1` [(6R)-N^5 -Methyl-THF.Ca^2+, (6R)-N^5 -methyl-THF-calcium salt] has an activity at 1 µM of 95%, an activity at 10 µM of 99% and an activity at 30 µM of 10%. It also gave an activity at 100 µM of 9.3% and an activity at 250 µM of 8.2%.
